Laboratory results from PubChem BioAssay AID330 (DTP/NCI, 2004).
Values joined by “and” are separate entries in the source; they are usually repeats but may differ in a detail not shown here. Equal values may be shown once. Toxic doses and inconclusive results are not listed.

Tested on: P388 leukemia ip, CD2F1 mice, survival T/C
Assay: NCI In Vivo Anticancer Drug Screen. Data for tumor model P388 Leukemia (intraperitoneal) in CD2F1 (CDF1) mice
Settings: endpoint: median survival time, higher = longer survival
How it was run: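 Mice carrying the transplanted tumor received test compound or vehicle. Survival was recorded in each group, and the value is the treated-group measurement divided by that of the vehicle-treated control group.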

[1] = dose: 50.0 mg/kg/injection, schedule: Q01DX005 (ip), vehicle: saline with Tween-80
[2] = dose: 60.0 mg/kg/injection, schedule: Q01DX005 (ip), vehicle: saline with Tween-80
[3] = dose: 120.0 mg/kg/injection, schedule: Q01DX005 (ip), vehicle: saline with Tween-80
[4] = dose: 240.0 mg/kg/injection, schedule: Q01DX005 (ip), vehicle: saline with Tween-80
[5] = dose: 100.0 mg/kg/injection, schedule: Q04DX003 (ip), vehicle: Klucel (hydroxypropylcellulose) (HPC)
[6] = dose: 200.0 mg/kg/injection, schedule: Q04DX003 (ip), vehicle: Klucel (hydroxypropylcellulose) (HPC)
[7] = dose: 50.0 mg/kg/injection, schedule: Q01DX009 (ip), vehicle: saline
[8] = dose: 100.0 mg/kg/injection, schedule: Q01DX009 (ip), vehicle: saline
[9] = dose: 200.0 mg/kg/injection, schedule: Q01DX009 (ip), vehicle: saline
[10] = dose: 100.0 mg/kg/injection, schedule: Q04DX002 (ip), vehicle: saline with Tween-80
[11] = dose: 200.0 mg/kg/injection, schedule: Q04DX002 (ip), vehicle: saline with Tween-80
[12] = dose: 25.0 mg/kg/injection, schedule: Q01DX009 (ip), vehicle: saline
[13] = dose: 50.0 mg/kg/injection, schedule: Q01DX009 (ip), vehicle: saline with Tween-80
[14] = dose: 100.0 mg/kg/injection, schedule: Q01DX009 (ip), vehicle: saline with Tween-80

With `CC(/C=N/NC(=O)C[n+]1ccccc1)=N/NC(=O)C[n+]1ccccc1` the T/C (dose: 3.12 mg/kg/injection, schedule: Q01DX005 (ip), vehicle: saline) was 96 % of control and 98 % of control, the T/C (dose: 6.25 mg/kg/injection, schedule: Q01DX005 (ip), vehicle: saline) was 97 % of control and 98 % of control and the T/C (dose: 12.5 mg/kg/injection, schedule: Q01DX005 (ip), vehicle: saline) was 99 % of control and 97 % of control. The T/C (dose: 25.0 mg/kg/injection, schedule: Q01DX005 (ip), vehicle: saline) was 99 % of control and 101 % of control and the T/C [1] was 95 % of control.
With `CC(C)=NOC1CCCCC1O` (centres undefined) the T/C (dose: 100.0 mg/kg/injection, schedule: Q04DX003 (ip), vehicle: saline with Tween-80) was 96 % of control, the T/C (dose: 200.0 mg/kg/injection, schedule: Q04DX003 (ip), vehicle: saline with Tween-80) was 99 % of control and the T/C (dose: 400.0 mg/kg/injection, schedule: Q04DX003 (ip), vehicle: saline with Tween-80) was 106 % of control.
In the case of `CC1(C)CC(=O)C2C(C1)OC1CC(C)(C)CC(=O)C1C2c1ccc2c(c1)OCO2` (centres undefined), the T/C [2] is reported as 104 % of control, the T/C [3] is reported as 100 % of control and the T/C [4] is reported as 97 % of control.
`Cc1ccc(-c2cnc3c(n2)c(=O)[nH]c(=O)n3C)cc1` was tested, and the T/C [5] was 103 % of control and the T/C [6] was 98 % of control.
In the case of `CC1CCCCC1OC(=O)Nc1ccccc1` (centres undefined), the T/C [7] is reported as 105 % of control, the T/C [8] is reported as 101 % of control and the T/C [9] is reported as 100 % of control.
With `CSC(=S)S(=O)(=O)C12CC3CC(CC(C3)C1)C2` the T/C (dose: 6.25 mg/kg/injection, schedule: Q01DX009 (ip), vehicle: Klucel (hydroxypropylcellulose) (HPC)) was 111 % of control and the T/C (dose: 25.0 mg/kg/injection, schedule: Q01DX009 (ip), vehicle: Klucel (hydroxypropylcellulose) (HPC)) was 113 % of control and 114 % of control.
In the case of `O=C1C=CC(=O)C(c2ccccc2)=C1`, the T/C (dose: 50.0 mg/kg/injection, schedule: Q01DX005 (ip), vehicle: Klucel (hydroxypropylcellulose) (HPC)) is reported as 100 % of control, the T/C (dose: 100.0 mg/kg/injection, schedule: Q01DX005 (ip), vehicle: Klucel (hydroxypropylcellulose) (HPC)) is reported as 105 % of control and the T/C (dose: 200.0 mg/kg/injection, schedule: Q01DX005 (ip), vehicle: Klucel (hydroxypropylcellulose) (HPC)) is reported as 112 % of control.
With `C=Cn1c([N+](=O)[O-])cnc1/C=C\c1ccc(C(=O)NC(C)C)cc1` the T/C (dose: 100.0 mg/kg/injection, schedule: Q04DX002 (ip), vehicle: gum acacia) was 92 % of control, the T/C (dose: 200.0 mg/kg/injection, schedule: Q04DX002 (ip), vehicle: gum acacia) was 96 % of control and the T/C (dose: 400.0 mg/kg/injection, schedule: Q04DX002 (ip), vehicle: gum acacia) was 92 % of control.
In the case of `COc1cccc(CN2C(=O)NC(C)(C)C2O)c1` (centres undefined), the T/C [2] is reported as 99 % of control, the T/C [3] is reported as 101 % of control and the T/C [4] is reported as 101 % of control.
For `Clc1cc(Cl)nc(N2CC2)n1`, the T/C (dose: 5.0 mg/kg/injection, schedule: Q01DX009 (ip), vehicle: saline with Tween-80) was 116 % of control, the T/C (dose: 5.0 mg/kg/injection, schedule: Q04DX003 (ip), vehicle: saline with Tween-80) was 100 % of control and the T/C (dose: 10.0 mg/kg/injection, schedule: Q01DX009 (ip), vehicle: saline with Tween-80) was 100 % of control. The T/C (dose: 10.0 mg/kg/injection, schedule: Q04DX003 (ip), vehicle: saline with Tween-80) was 104 % of control and the T/C (dose: 20.0 mg/kg/injection, schedule: Q04DX003 (ip), vehicle: saline with Tween-80) was 118 % of control.
For `O=C(O)/C(Br)=C(/Br)C(=O)O`, the T/C [10] was 106 % of control and the T/C [11] was 100 % of control.
`CC(C)OC1=C2CCCCC2=[N+]2CCc3ccccc3C2C1` (centres undefined) was tested, and the T/C (dose: 6.25 mg/kg/injection, schedule: Q04DX003 (ip), vehicle: saline with Tween-80) was 107 % of control, the T/C (dose: 12.5 mg/kg/injection, schedule: Q04DX003 (ip), vehicle: saline with Tween-80) was 107 % of control and the T/C (dose: 25.0 mg/kg/injection, schedule: Q04DX003 (ip), vehicle: saline with Tween-80) was 99 % of control.
For `CCn1c2ccc([N+](=O)[O-])cc2c2c([N+](=O)[O-])c(-n3cccc3)ccc21`, the T/C [1] was 95 % of control, the T/C (dose: 100.0 mg/kg/injection, schedule: Q01DX005 (ip), vehicle: saline with Tween-80) was 90 % of control and the T/C (dose: 200.0 mg/kg/injection, schedule: Q01DX005 (ip), vehicle: saline with Tween-80) was 88 % of control.
In the case of `NC(=O)CCCCCOc1ccc(OC2OC(CO)C(O)C(O)C2O)cc1` (centres undefined), the T/C [10] is reported as 100 % of control, the T/C [11] is reported as 102 % of control and the T/C (dose: 400.0 mg/kg/injection, schedule: Q04DX002 (ip), vehicle: saline with Tween-80) is reported as 104 % of control.
`CC(N)(Cc1ccc(O)c(O)c1)C(=O)O` (centres undefined) was tested, and the T/C [7] was 99 % of control and 107 % of control and 110 % of control, the T/C [8] was 99 % of control and 102 % of control and 112 % of control and the T/C [9] was 108 % of control and 96 % of control. For the same compound, the T/C (dose: 400.0 mg/kg/injection, schedule: Q01DX009 (ip), vehicle: saline) was 105 % of control and 109 % of control and 115 % of control and the T/C (dose: 600.0 mg/kg/injection, schedule: Q01DX009 (ip), vehicle: saline) was 114 % of control and 121 % of control and 94 % of control.
In the case of `Nc1nc(SCc2ccccc2)c2ncn(CCCl)c2n1`, the T/C (dose: 0.78 mg/kg/injection, schedule: Q01DX009 (ip), vehicle: saline) is reported as 97 % of control, the T/C (dose: 1.56 mg/kg/injection, schedule: Q01DX009 (ip), vehicle: saline) is reported as 101 % of control and the T/C (dose: 3.12 mg/kg/injection, schedule: Q01DX009 (ip), vehicle: saline) is reported as 105 % of control. The T/C (dose: 6.25 mg/kg/injection, schedule: Q01DX009 (ip), vehicle: saline) was 102 % of control and 95 % of control, the T/C (dose: 6.25 mg/kg/injection, schedule: Q01DX009 (ip), vehicle: suspension in saline) was 103 % of control and the T/C [12] was 100 % of control. For the same compound, the T/C [7] was 111 % of control and the T/C (dose: 50.0 mg/kg/injection, schedule: Q01DX009 (ip), vehicle: suspension in saline) was 94 % of control.
In the case of `COc1cc2[nH]c3cc(OC)c(OC)cc3c2cc1C`, the T/C (dose: 15.0 mg/kg/injection, schedule: Q01DX005 (ip), vehicle: saline with Tween-80) is reported as 100 % of control, the T/C (dose: 30.0 mg/kg/injection, schedule: Q01DX005 (ip), vehicle: saline with Tween-80) is reported as 96 % of control and the T/C [2] is reported as 102 % of control and 86 % of control.
`CC1=CCCC(C)(C)C1/C=C(/C#N)C(=O)N=C(N)N` (centres undefined) was tested, and the T/C [7] was 99 % of control, the T/C [8] was 97 % of control and the T/C [9] was 99 % of control.
In the case of `F[C](F)(F)[Hg][Br]`, the T/C (dose: 6.25 mg/kg/injection, schedule: Q04DX002 (ip), vehicle: saline) is reported as 100 % of control, the T/C (dose: 12.5 mg/kg/injection, schedule: Q04DX002 (ip), vehicle: saline) is reported as 92 % of control and the T/C (dose: 25.0 mg/kg/injection, schedule: Q04DX002 (ip), vehicle: saline) is reported as 106 % of control.
In the case of `Cc1cc(N(CCOS(C)(=O)=O)CCOS(C)(=O)=O)ccc1C=Nc1ccc(-c2csc(-c3ccc(Br)cc3)n2)cc1`, the T/C (dose: 25.0 mg/kg/injection, schedule: Q01DX009 (ip), vehicle: saline with Tween-80) is reported as 180 % of control, the T/C [13] is reported as 209 % of control and the T/C [14] is reported as 98 % of control and 90 % of control.
For `CCCCP(=O)(CC(=O)O)c1ccccc1` (centres undefined), the T/C [2] was 98 % of control, the T/C [3] was 99 % of control and the T/C [4] was 102 % of control.
For `COc1ccc(Cc2coc3ccccc3c2=O)cc1OC`, the T/C [2] was 102 % of control, the T/C [3] was 97 % of control and the T/C [4] was 97 % of control.
For `CCCCCC(CN(C)C)C(=O)/C=C/c1ccccc1` (centres undefined), the T/C (dose: 12.5 mg/kg/injection, schedule: Q01DX009 (ip), vehicle: saline) was 102 % of control, the T/C [12] was 94 % of control and the T/C [7] was 104 % of control. The T/C [8] was 105 % of control.
`O=C1/C(=C\c2ccccc2)C/C1=C\c1ccccc1` was tested, and the T/C [5] was 97 % of control, the T/C [6] was 100 % of control and the T/C (dose: 400.0 mg/kg/injection, schedule: Q04DX003 (ip), vehicle: Klucel (hydroxypropylcellulose) (HPC)) was 95 % of control.
In the case of `C/C(=N\NC(N)=O)C1=C(O)C(C(C)C)NC1=O` (centres undefined), the T/C [13] is reported as 93 % of control, the T/C [14] is reported as 99 % of control and the T/C (dose: 200.0 mg/kg/injection, schedule: Q01DX009 (ip), vehicle: saline with Tween-80) is reported as 92 % of control. The T/C (dose: 400.0 mg/kg/injection, schedule: Q01DX009 (ip), vehicle: saline with Tween-80) was 99 % of control.
In the case of `CC12CCC(Br)C(C)(C)C1CC=C1C(=O)OCC1O2` (centres undefined), the T/C (dose: 7.5 mg/kg/injection, schedule: Q01DX009 (ip), vehicle: Klucel (hydroxypropylcellulose) (HPC)) is reported as 101 % of control, the T/C (dose: 15.0 mg/kg/injection, schedule: Q01DX009 (ip), vehicle: Klucel (hydroxypropylcellulose) (HPC)) is reported as 105 % of control and the T/C (dose: 30.0 mg/kg/injection, schedule: Q01DX009 (ip), vehicle: Klucel (hydroxypropylcellulose) (HPC)) is reported as 111 % of control. For the same compound, the T/C (dose: 60.0 mg/kg/injection, schedule: Q01DX009 (ip), vehicle: Klucel (hydroxypropylcellulose) (HPC)) was 111 % of control.
